The series in a line: Human HepG2 cell viability assay in 384 well format. The series is classed as toxicity, cell-based. The note with it: HepG2 cells, read-out: Inhibition. Also noted: dose 125 nL, time 70.5 hour; cytotoxicity at 70.5 h: concentration not given beside the values.
Regarding `CC(C)c1noc(C[S+]([O-])CC(=O)Nc2ccc(F)c(F)c2)n1` (stereo unspecified), the cytotoxicity at 70.5 h amounted to 10.4%.

With `Cc1csc(-c2cccc(NC(=O)N3CCOCC3)c2)n1`, the cytotoxicity at 70.5 h was -3.32%. Next, `CC(C)C(C)(CNC(=O)OC(C)(C)C)NC(=O)c1cnccn1` (stereo unspecified): 2.42%. The value for `CN1CCOC(CNCc2nc(-c3cccnc3)no2)C1` (stereo unspecified) was -6.13%.

Regarding `CC(C)c1nc(S(=O)(=O)Nc2ccnn2C2CCCC2)c[nH]1`, the cytotoxicity at 70.5 h worked out at 1.34%. The value for `O=C(Nc1ccc(-c2ccccc2)cn1)C1CCCN1C(=O)C1CC1` (stereo unspecified) was 5.65%; that for `CN1CCOC(CNCc2nc(-c3ccco3)no2)C1` (stereo unspecified) was 2.27%; that for `Cc1cc(Cn2cncc(Br)c2=O)on1` was 5.25%. The value for `O=C(NCC(O)c1ccsc1)c1sccc1OC(F)F` (stereo unspecified) was -13.8%. For `CCOCCN1CCN(CC2(O)CCCCC2)CC1`, the cytotoxicity at 70.5 h was -4.54%. `CCn1nc2c(cc1=O)CN(CCCOc1ccc(C#N)cc1)CC2`: the cytotoxicity at 70.5 h stood at 10.4%. The value for `Cc1ccc(C(=O)NCC(O)CN2CCCC2=O)c(C)c1` (stereo unspecified) was -1.64%; that for `Cc1cc(C)n(CC2CCN(CC(O)CN3CCOCC3)CC2)n1` (stereo unspecified) was -2.43%; that for `CCS(=O)(=O)N1Cc2ccccc2CC1C(=O)OCc1c(C)noc1C` (stereo unspecified) was -7.84%. As for `O=C1CN(C(=O)c2cc3c(F)cc(Br)cc3[nH]2)CCN1`, the cytotoxicity at 70.5 h was -4.59%. Next, `COc1cccc(CCC(=O)Nc2c(C)nn(C)c2C)c1OC`: -10.8%; `CC1(C)COCCN1C(=O)Cc1cc(Cl)c2c(c1)OCCO2`: 0.881%. Next, `Cc1nc(CNCC2CNc3ccnn3C2)cs1` (stereo unspecified): -7.55%.

As for `COc1ccc2cc(C(=O)NCCNc3ccc(C)nn3)[nH]c2c1`, the cytotoxicity at 70.5 h was -5.63%. Next, `Cc1noc(C)c1CNCC1CNc2ccnn2C1` (stereo unspecified): -7.43%; `CCc1nnc2n1CCN(C(=O)C(C)Oc1cccc(C#N)c1)C2` (stereo unspecified): 12.9%; `Cc1cccc(-c2noc(Cn3nc(C(N)=O)ccc3=O)n2)c1`: -4.08%. As to `CCc1ccc(-c2noc(Cn3nc(C(N)=O)ccc3=O)n2)cc1`, the cytotoxicity at 70.5 h is -6.4%. For `Cc1nn(C)c(C)c1C1CCCN1CC(=O)N(C)c1nccs1` (stereo unspecified), the cytotoxicity at 70.5 h was -3.66%. The value for `CN(CCOc1ccc(C#N)cc1)CC1CCS(=O)(=O)C1` (stereo unspecified) was -9.8%; that for `CC(=O)NCCCNC(=O)N1CCN(c2cc(F)ccc2F)CC1` was -6.3%; that for `Cc1cc(C2CCCN(Cc3nnc(Cc4ccccc4)o3)C2)n[nH]1` (stereo unspecified) was -9.79%. The value for `C[S+]([O-])CCNC(=O)N1CCN(c2cc(F)ccc2F)CC1` (stereo unspecified) was 13%; that for `Cc1cc(COC(=O)[C@@H]2Cc3ccccc3CN2S(C)(=O)=O)no1` was 1.54%; that for `Cc1ccc(CNc2cc3c(cc2Cl)NC(=O)CO3)cc1C` was -5.39%. On to `Cc1ccc(CNCc2nccn2C)c(OC(C)(C)C)c1`, for which the cytotoxicity at 70.5 h is -7.39%. Next, `Cc1ccc(CNCc2nccn2C)c(OCC2CC2)c1`: 7.03%; `CC1COCCN1C(=O)Cc1cc(Cl)c2c(c1)OCCCO2` (stereo unspecified): -14.3%; `CCSc1cccc(NCc2cccnc2)c1`: -16.6%. As to `COc1c(C2CCCN2CC(=O)N(C)Cc2ccco2)c(C)nn1C` (stereo unspecified), the cytotoxicity at 70.5 h is -5.02%. For `COc1ccccc1C(=O)NCCC(=O)Nc1c(C)nn(C)c1C`, the cytotoxicity at 70.5 h was -12.6%.

With `COCCCNC(=O)NCc1nc(C)c(C)o1`, the cytotoxicity at 70.5 h was -7.01%.

Turning to `CN(Cc1ccccc1)c1ccc(C(F)(F)F)cn1`, the cytotoxicity at 70.5 h is -3.92%. The value for `CSc1ccccc1NC(=O)CCN1CCC(C(=O)N(C)C)CC1` was 2.74%; that for `O=C1COc2cc(S(=O)(=O)NCCC3=CCCCC3)c(Br)cc2N1` was -8%; that for `CN(Cc1ccc(C(N)=O)cc1)c1ccc(C(F)(F)F)cn1` was -2.07%.

As for `Cn1cc(C(=O)N2CCCC2c2ccc3c(c2)OCCO3)ccc1=O` (stereo unspecified), the cytotoxicity at 70.5 h is -4.05%. Consider `CC1CCc2sc(C(=O)Nc3cnn(C)c3)cc2C1` (stereo unspecified), for which the cytotoxicity at 70.5 h was -2.28%.

In the case of `Cn1ccnc1CCNS(=O)(=O)c1cccc(Br)c1`, the cytotoxicity at 70.5 h is -2.62%. Next, `CC(C)(C(=O)N1CCC(C(N)=O)C1)c1ccccc1F` (stereo unspecified): -2.99%. As to `CN(C)CCN(Cc1ccccc1)C(=O)CN1CCCNC1=O`, the cytotoxicity at 70.5 h is -0.477%.

In the case of `CCN(CC)C(=O)CNC(=O)c1c[nH]c2ccc(OC)cc12`, the cytotoxicity at 70.5 h is 3.81%. With `Cc1cc(C)n(C2CN(Cc3ccc(C(=O)N4CCCC4)cc3)C2)n1`, the cytotoxicity at 70.5 h was -1.2%.

Consider `CNC(=O)c1cccc(NCCOc2ccc(CC#N)cc2)c1C`, for which the cytotoxicity at 70.5 h was -1.82%. `CC(C)(C(=O)N1CCC(CS(N)(=O)=O)CC1)c1ccccc1F`: the cytotoxicity at 70.5 h is 1.82%.

With `Cn1nc2c(cc1=O)CN(c1nc3ccccc3s1)CC2`, the cytotoxicity at 70.5 h stood at 4.78%. The value for `COc1c(NS(=O)(=O)c2cc(C)ccc2C)c(C)nn1C` was -63.5%; that for `O=C(c1cc(-n2cccn2)ccn1)N1CCOc2ncccc21` was -1.03%; that for `O=C(c1cc(-n2cccn2)ccn1)N1CCOc2ccncc21` was -0.581%. Next, `O=C(c1cc(-n2cccn2)ccn1)N1CCOc2ccc(F)cc21`: 0.748%; `Cn1cc(CNC(=O)c2cc3c(s2)CCCCC3)cn1`: -3.43%; `NC(=O)C1CN(C(=O)C2(c3ccc(F)cc3F)CCCC2)CCO1` (stereo unspecified): -1.48%. Next, `CC(=O)N(C)Cc1ccccc1NCc1c(C)cccc1C`: -3.43%; `c1ccc2nc(N3CCCC3)c(NCc3nnc4n3CCC4)nc2c1`: -9.07%; `CNC(=O)c1cccnc1NCCOc1ccc(CC#N)cc1`: -0.53%. Consider `Cn1cc(CNC2CCc3ncnn3C2)c(-c2cccnc2)n1` (stereo unspecified), for which the cytotoxicity at 70.5 h is -5.95%. Turning to `CCc1ccc(CNC2(c3ccc(F)cc3)CCOCC2)o1`, the cytotoxicity at 70.5 h was -5.73%. On to `CCCc1n[nH]c(C2CN(CC(=O)N(C)Cc3ccco3)CCO2)n1` (stereo unspecified), for which the cytotoxicity at 70.5 h was -6.63%.

Take `CC(C)c1n[nH]c(C2CN(CC(=O)N(C)Cc3ccco3)CCO2)n1` (stereo unspecified): the cytotoxicity at 70.5 h was -3.93%. The value for `Cn1cc(CNC2CCc3ncnn3C2)c(-c2ccncc2)n1` (stereo unspecified) was -1.76%; that for `Cc1noc(C)c1CN(C)Cc1csc(-c2ccc(C(C)C)cc2)n1` was 19.9%. `N#Cc1ncn(CCS(=O)(=O)c2ccc(Cl)cc2)n1`: the cytotoxicity at 70.5 h amounted to 2.53%. Next, `Cc1cc(NC(=O)NCc2ccc(C)s2)no1`: -8.73%; `CC(C)Oc1ccc(C(=O)NCc2ccnc(N3CCCC3)c2)cn1`: -10.1%. The value for `CCn1cnnc1CNC(=O)N(C)Cc1ccc(Cl)cc1Cl` was 3.74%. The value for `O=C(NCCc1cccc(Cl)c1)C1CCOCC1` was 0.784%; that for `COC(=O)N1CCCC(C(=O)Nc2ccccc2CN2CCCC2)C1` (stereo unspecified) was -0.192%; that for `CCN1CCN(C2CCN(C(C(N)=O)c3ccccc3)CC2)C1=O` (stereo unspecified) was 1.23%. Consider `CN(C)C1CCN(C(=O)C2SCCc3ccccc32)CC1` (stereo unspecified), for which the cytotoxicity at 70.5 h is -6.27%. Next, `CS(=O)(=O)CCCNC1CCCN(Cc2noc(C3CC3)n2)C1` (stereo unspecified): -7.07%. The value for `CC(C)NC(=O)CS(=O)(=O)Cc1coc(-c2ccc(F)cc2)n1` was -17.8%. For the molecule `CS(=O)(=O)NCCC1CCCCN1C(=O)NCc1ccccn1` (stereo unspecified), the cytotoxicity at 70.5 h was -18.6%. The value for `CCN1CCN(C(=O)NCc2ccccc2Cn2cncn2)CC1` was 19.4%.

Take `CS(=O)(=O)CCCNC(=O)C1(c2cccc(Cl)c2)CC1`: the cytotoxicity at 70.5 h was -12.8%. For `CC(=O)N1CCN(C(=O)CN(C)c2ccc(Cl)cn2)CC1`, the cytotoxicity at 70.5 h was -10.3%. Turning to `Cc1ncc(CN2CCC(c3nc4cc(Cl)ccc4o3)CC2)s1`, the cytotoxicity at 70.5 h amounted to 22.3%. `CN1CCCN(C(=O)NCc2ccccc2Cn2cncn2)CC1`: the cytotoxicity at 70.5 h was -2.94%. Turning to `CC(=O)N1CCN(C(=O)NCc2ccccc2Cn2cncn2)CC1`, the cytotoxicity at 70.5 h was -14.9%.

Turning to `COc1cc(C(=O)NS(=O)(=O)c2cncc(Br)c2)ccc1C`, the cytotoxicity at 70.5 h is -19%. In the case of `CC(C)C(=O)N1CCCC1C(=O)Nc1cc(C(F)(F)F)ccc1F` (stereo unspecified), the cytotoxicity at 70.5 h was -17.3%. Next, `CCS(=O)(=O)CCNC(=O)C1(c2cccc(Cl)c2)CC1`: 15.5%; `COC(=O)[C@H](C)NC(=O)COc1nn(C)c2nc(C)cc(C)c12`: -16.3%; `Cc1cc(C)c2c(OCC(=O)N(C)CC(=O)NC(C)C)nn(C)c2n1`: -19.9%.

For `Cc1cc(NC(=O)CN2CCc3c(nc(C(C)C)n3C)C2)n(C)n1`, the cytotoxicity at 70.5 h is -16.7%.

As for `Cc1nnc(NC(=O)CN2CCc3c(nc(C(C)C)n3C)C2)s1`, the cytotoxicity at 70.5 h was -8.19%. `CN(CC(=O)N1CCN(CC(C)(C)O)CC1)c1ccc(Cl)cn1`: the cytotoxicity at 70.5 h is -17.3%.

For the molecule `CCC(C)(CC)NC(=O)COc1nn(C)c2nc(C)cc(C)c12`, the cytotoxicity at 70.5 h stood at 14.2%. Take `Cc1n[nH]c(C)c1NC(=O)CN1CCc2c(nc(C(C)C)n2C)C1`: the cytotoxicity at 70.5 h is -16.4%. Next, `COCCOCC(C)NC(=O)COc1nn(C)c2nc(C)cc(C)c12` (stereo unspecified): -11%; `CC(C)C(=O)N1CCCC1C(=O)Nc1ccc(F)c(F)c1` (stereo unspecified): -14.3%; `COc1ccc(C(=O)NS(=O)(=O)c2cncc(Br)c2)cc1`: -16.9%. The value for `CNC(=O)Cc1coc(-c2ccc(F)cc2)n1` was -16.9%; that for `COc1cc(C(=O)NS(=O)(=O)c2cncc(Br)c2)cc(OC)c1C` was -8.02%; that for `Cc1ccc(F)c(S(=O)(=O)Nc2cn(C)cc(Br)c2=O)c1` was -1.44%.

With `Cn1cc(Br)c(=O)c(NS(=O)(=O)c2ccc3c(c2)CCC3)c1`, the cytotoxicity at 70.5 h stood at 2.07%.

As to `CN(CCc1cccs1)C(=O)Nc1cnn(CC2CCCO2)c1` (stereo unspecified), the cytotoxicity at 70.5 h is -16%.

The record behind these values is ChEMBL document CHEMBL3507680, “University of Dundee, Gates Library screen for HepG2 cell viability”.
